Read-outs that look alike come from different tables or passages of the source.
What was measured:
[1] = target: human endothelial constitutive NOS (eNOS) (Homo sapiens (Human), UniProt P29474); experiment: Human eNOS enzyme assay, radiometric;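 also: recombinant human eNOS expressed in baculovirus-infected Sf9 cells, activity read as [3H]L-arginine turned into [3H]L-citrulline, the product isolated on ion-exchange resin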
[2] = target: human neuronal constitutive NOS (nNOS) (Homo sapiens (Human), UniProt P29475); experiment: Human nNOS enzyme assay, radiometric [3H]L-arginine to [3H]L-citrulline;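 also: recombinant human nNOS expressed in baculovirus-infected Sf9 cells, enzyme activity measured radiometrically as turnover of [3H]L-arginine into [3H]L-citrulline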
[3] = target: human inducible NOS (iNOS) (Homo sapiens (Human), UniProt P35228); experiment: Human iNOS enzyme assay, radiometric; type: biochemical
Excerpt: Standard deviations were 10% or less.

[4] = read-out: eNOSh, Table II, human NOS, dihydrochloride or monohydrochloride salts
[5] = read-out: nNOSh, Table II, human NOS, dihydrochloride or monohydrochloride salts
[6] = read-out: eNOSh, Table I, human NOS, dihydrochloride or monohydrochloride salts
[7] = read-out: nNOSh, Table I, human NOS, dihydrochloride or monohydrochloride salts
[8] = Table I, human NOS, dihydrochloride or monohydrochloride salts, read-out: iNOSh

| SMILES | IC50 [1, 4] | e/n ([2]; Table II, ratio eNOSh/nNOSh) | IC50 [2, 5] | IC50 [2, 7] | IC50 [1, 6] | e/n ([2]; Table I, ratio eNOSh/nNOSh) | further results |
| --- | --- | --- | --- | --- | --- | --- | --- |
| N=C(Nc1ccc2[nH]cc(-c3ccncc3)c2c1)c1cccs1 [Compound 73, N-(3-(pyridin-4-yl)-1H-indol-5-yl)thiophene-2-carboximidamide] |  |  |  | 2200 nM | 43.4 µM | 19.7 |  |
| CN(C)CCCc1c[nH]c2ccc(NC(=N)c3cccs3)cc12 [Compound 56, N-(3-(3-(dimethylamino)propyl)-1H-indol-5-yl)thiophene-2-carboximidamide] |  |  |  | 410 nM | 15.1 µM |  | IC50 [3, 8]: 5.6 µM |
| CN1CCC(c2c[nH]c3ccc(NC(=N)c4ccco4)cc23)CC1 [Compound 47, N-(3-(1-methylpiperidin-4-yl)-1H-indol-5-yl)furan-2-carboximidamide] |  |  |  | 2240 nM | 97.4 µM |  | IC50 [3, 8]: 55 µM |
| CN1CC=C(c2c[nH]c3ccc(CNC(=N)c4cccs4)cc23)CC1 [Compound 51, N-((3-(1-methyl-1,2,3,6-tetrahydropyridin-4-yl)-1H-indol-5-yl)methyl)thiophene-2-carboximidamide] |  |  |  | 1190 nM | 49.7 µM | 42 | IC50 [3, 8]: 85 µM |
| N=C(Nc1ccc2[nH]cc(C3CCN(C(=O)c4ccccc4)CC3)c2c1)c1cccs1 [Compound 70, N-(3-(1-benzoylpiperidin-4-yl)-1H-indol-5-yl)thiophene-2-carboximidamide] |  |  |  | 5620 nM | 50.9 µM | 9.06 |  |
| N=C(Nc1ccc2ccn(CCN3CCCCC3)c2c1)c1cccs1 [Compound 37] |  |  |  |  |  |  | IC50 ([3]; Table 2b, read-out: Human iNOS): 21 µM; IC50 ([1]; read-out: Human eNOS, Table 2b): 3.8 µM; IC50 ([2]; read-out: Human nNOS, Table 2b): 490 nM |
| N=C(Nc1ccc2[nH]cc(C3CN4CCC3CC4)c2c1)c1ccco1 (centres unmarked) [Compound 127, N-(3-(quinuclidin-3-yl)-1H-indol-5-yl)furan-2-carboximidamide] |  |  |  | 2600 nM | 66 µM | 25.3 |  |
| CN1C2C=C(c3c[nH]c4ccc(NC(=N)c5cccs5)cc34)CC1CC2 (centres unmarked) [Compound 90, N-(3-(8-methyl-8-azabicyclo[3.2.1]oct-3-en-3-yl)-1H-indol-5-yl)thiophene-2-carboximidamide] |  |  |  | 3350 nM | 67.9 µM | 20.3 |  |
| CN1CC=C(c2c[nH]c3ccc(NC(=S)NC(=O)c4ccccc4)cc23)CC1 [Compound 64, N-(3-(1-methyl-1,2,3,6-tetrahydropyridin-4-yl)-1H-indol-5-ylcarbamothioyl)benzamide] |  |  |  | 14000 nM | 43 µM | 3 |  |
| N=C(Nc1ccc2ccn(CCc3ccccc3)c2c1)c1cccs1 [Compound 115] |  | >8.3 |  |  |  |  | IC50 ([1]; read-out: eNOSh): > 100 µM; IC50 ([2]; read-out: nNOSh): 12000 nM |
| CN1CC=C(c2c[nH]c3ccc(NC(=N)c4ccco4)cc23)CC1 [Compound 46, N-(3-(1-methyl-1,2,3,6-tetrahydropyridin-4-yl)-1H-indol-5-yl)furan-2-carboximidamide] |  |  |  | 1780 nM | 54 µM | 31 | IC50 [3, 8]: 58 µM |
| CN1CCC(c2c[nH]c3ccc(NC(=N)c4cccs4)cc23)CC1 [Compound 43, N-(3-(1-methylpiperidin-4-yl)-1H-indol-5-yl)thiophene-2-carboximidamide] |  |  |  | 1880 nM | 32.6 µM | 17 | IC50 [3, 8]: 58 µM |
| CCN1CCC(c2c[nH]c3ccc(NC(=N)c4cccs4)cc23)CC1 [Compound 62, N-(3-(1-ethylpiperidin-4-yl)-1H-indol-5-yl)thiophene-2-carboximidamide] |  |  |  | 2430 nM | 57.3 µM | 24 |  |
| CN(C)C1CCC(c2c[nH]c3ccc(NC(=N)c4cccs4)cc23)CC1 (centres unmarked) [Compound 116, N-(3-(4-(dimethylamino)cyclohexyl)-1H-indol-5-yl)thiophene-2-carboximidamide] |  |  |  |  | 31.8 µM | 9.2 |  |
| CN1CCC[C@H]1Cc1c[nH]c2ccc(NC(=N)c3ccco3)cc12 [Compound 107, (S)-N-(3-((1-methylpyrrolidin-2-yl)methyl)-1H-indol-5-yl)furan-2-carboximidamide] |  |  |  | 2520 nM | 24.9 µM | 9.9 |  |
| N=C(Nc1ccc2[nH]cc(C3CN4CCC3CC4)c2c1)c1cccs1 (centres unmarked) [Compound 126, N-(3-(quinuclidin-3-yl)-1H-indol-5-yl)thiophene-2-carboximidamide] |  |  |  | 1040 nM | 32.1 µM | 30.9 |  |
| N=C(Nc1ccc2[nH]cc(C3CCN(C(=N)c4cccs4)CC3)c2c1)c1cccs1 [Compound 77, N-(3-(1-(imino(thiophen-2-yl)methyl)piperidin-4-yl)-1H-indol-5-yl)thiophene-2-carboximidamide] |  |  |  | 717 nM | 4.44 µM | 6.19 |  |
| N=C(Nc1ccc2[nH]cc(C3CCNCC3)c2c1)c1cccs1 [Compound 88, N-(3-(piperidin-4-yl)-1H-indol-5-yl)thiophene-2-carboximidamide] |  |  |  | 9230 nM | 78.1 µM | 8.5 |  |
| CN(C)CCc1c[nH]c2ccc(CNC(=N)c3cccs3)cc12 [Compound 59, N-((3-(2-(dimethylamino)ethyl)-1H-indol-5-yl)methyl)thiophene-2-carboximidamide] |  |  |  |  | 86.2 µM |  | e/n [2]: 7; IC50 ([2]; read-out: nNOSh): 12800 nM |
| CCSC(=N)Nc1ccc2[nH]cc(C3=CCN(C)CC3)c2c1 [Compound 67, Ethyl 3-(1-methyl-1,2,3,6-tetrahydropyridin-4-yl)-1H-indol-5-ylcarbamimidothioate] |  |  |  | 4800 nM | 105 µM | 22 |  |
| CN1CCC[C@@H]1Cc1c[nH]c2ccc(NC(=N)c3ccco3)cc12 [Compound 106, (R)-N-(3-((1-Methylpyrrolidin-2-yl)methyl)-1H-indol-5-yl)furan-2-carboximidamide] |  |  |  | 2080 nM | 27.1 µM | 13.0 |  |
| CSC(=N)Nc1ccc2[nH]cc(C3=CCN(C)CC3)c2c1 [Compound 75, Methyl 3-(1-methyl-1,2,3,6-tetrahydropyridin-4-yl)-1H-indol-5-ylcarbamimidothioate] |  |  |  | 2250 nM | 36.1 µM | 16.0 |  |

The next lines start with results.

| IC50 [1, 4] | e/n ([2]; Table II, ratio eNOSh/nNOSh) | IC50 [2, 5] | IC50 [2, 7] | SMILES | IC50 [1, 6] | e/n ([2]; Table I, ratio eNOSh/nNOSh) | further results |
| --- | --- | --- | --- | --- | --- | --- | --- |
| 28.3 µM | 41.1 | 700 nM |  | CN(C)CCCn1ccc2ccc(NC(=N)c3cccs3)cc21 [Compound 157, N-(1-(3-(dimethylamino)propyl)-1H-indol-6-yl)thiophene-2-carboximidamide] |  |  |  |
|  |  |  | 3000 nM | CN(C)C1CC=C(c2c[nH]c3ccc(NC(=N)c4cccs4)cc23)CC1 (centres unmarked) [Compound 114, N-(3-(4-(dimethylamino)cyclohex-1-enyl)-1H-indol-5-yl)thiophene-2-carboximidamide] | 51.4 µM | 17.1 |  |
| 37 µM | 42.5 | 870 nM |  | CN1CCCC(n2ccc3ccc(NC(=N)c4cccs4)cc32)CC1 (centres unmarked) [Compound 156] |  |  |  |
| 2.53 µM | 9.6 | 260 nM |  | N=C(Nc1ccc2ccn(CCCCn3ccnc3)c2c1)c1cccs1 [Compound 168, N-(1-(4-(1H-imidazol-1-yl)butyl)-1H-indol-6-yl)thiophene-2-carboximidamide] |  |  |  |
|  |  |  | 2780 nM | CN1CC=C(c2c[nH]c3ccc(NC(=N)c4cccs4)cc23)C(F)C1 (centres unmarked) [Compound 134, N-(3-(3-fluoro-1-methyl-1,2,3,6-tetrahydropyridin-4-yl)-1H-indol-5-yl)thiophene-2-carboximidamide] | 143 µM | 51.4 |  |
| 10.2 µM | 17.2 | 590 nM |  | CCN(CC)CCCn1ccc2ccc(NC(=N)c3cccs3)cc21 [Compound 158] |  |  |  |
| 9.91 µM | 5.57 | 1780 nM |  | CNCCCn1ccc2ccc(NC(=N)c3cccs3)cc21 [Compound 161] |  |  |  |
|  |  |  | 1730 nM | CNC1CC=C(c2c[nH]c3ccc(NC(=N)c4cccs4)cc23)CC1 (centres unmarked) [Compound 100, N-(3-(4-(methylamino)cyclohex-1-enyl)-1H-indol-5-yl)thiophene-2-carboximidamide] | 32 µM | 18.5 |  |
| 16 µM | 50 | 320 nM |  | CN1CCC[C@@H]1CCn1ccc2ccc(NC(=N)c3cccs3)cc21 [Compound 138] |  |  |  |
| 33 µM | 14.3 | 2300 nM |  | CN1CCCC1CCn1c(Cc2ccccc2)cc2ccc(NC(=N)c3cccs3)cc21 (centres unmarked) [Compound 162] |  |  |  |
| 17 µM | 12.1 | 1400 nM |  | N=C(Nc1ccc2ccn(CCCN3CCOCC3)c2c1)c1ccsc1 [Compound 182] |  |  |  |
| 34 µM | 14.2 | 2400 nM |  | N=C(Nc1ccc2ccn(CCCN3CCOCC3)c2c1)c1ccco1 [Compound 183] |  |  |  |
| 4.56 µM | 3.74 | 1220 nM |  | N=C(Nc1ccc2ccn(CCCCn3ccnc3)c2c1)c1cccs1 [Compound 167] |  |  |  |
| 24 µM | 120 | 200 nM |  | CN1CCC[C@H]1CCn1ccc2ccc(NC(=N)c3cccs3)cc21 [Compound 139] |  |  |  |
| 5.77 µM | 2.11 | 2730 nM |  | CN(C)CCCn1ccc2ccc(NC(=N)c3cccs3)cc21 [Compound 160] |  |  |  |
| 19 µM | 19 | 1000 nM |  | N=C(Nc1ccc2ccn(CCCN3CCOCC3)c2c1)c1ccoc1 [Compound 184] |  |  |  |
| 3.8 µM | 7.8 | 490 nM |  | N=C(Nc1ccc2ccn(CCN3CCCCC3)c2c1)c1cccs1 [Compound 136] |  |  |  |

Reference: US8586620B2, “Substituted indole compounds having NOS inhibitory activity” (NeurAxon, Inc., priority 2005, dated 2013)
